In one experiment the test system is IL-6. As to the kind of experiment: IL-6 production by LPS-treated hMADS adipocytes (ECL immunoassay). The class given is cell-based, human. The following applies: fatty acid 10-4 to 10-9 mol 24 h then 5 ug/mL LPS 24 h, versus LPS only, all tested concentrations, FIG. 8/9.
For the next experiment, the system named is IL-10. Description: IL-10 mRNA expression in LPS-treated hMADS derived adipocytes (real-time PCR). The class given is cell-based, human. Particulars: butyric acid 10^−4M, hexanoic acid 10^−5M, 24 h then 5 ug/mL LPS 24 h, relative to LPS without short chain fatty acids, FIG. 10. In general terms: Real-time PCR tracks product formation cycle by cycle.

Experimental for IL-10: In the experiment, adipose tissue-derived stem cells were pre-treated with butyric acid, caproic acid, and a combination thereof after which lipopolysaccharide (LPS) was added to induce (low-grade) inflammation. […] Pooled human multipotent adipose tissue-derived stem cells (hMADS), were differentiated into the adipogenic lineage, creating a human white adipocyte model. hMADS cells were derived from male human donors with a large range in BMI (20-40 kg/m2) and glucometabolic status, and age between 35 and 70 years of age. Cells were seeded at a density of 2,000 cells/cm2 and kept in proliferation medium containing Dulbecco's modified Eagle's medium (DMEM), Ham's F-12 Nutrient Mixture (Gibco, Bleiswijk, Netherlands), 10% fetal bovine serum (Bodinco BV, Alkmaar, NL, Netherlands), 50 U/ml penicillin (Gibco), and 50 μg/ml of streptomycin (Gibco)]. At 70-80% confluence, 250 μmol/L IBMX (Sigma, St. Louis, MI, USA) and 5 μmol/L rosiglitazone (Enzo Life Sciences, Raamsdonksveer, Netherlands) were added to induce adipogenic differentiation. Experiments were carried out between days 12 and 14 of the differentiation. To study the effect of butyric acid (10^-4M) and hexanoic acid (10^-5M) on the expression of the anti-inflammatory cytokine IL-10, hMADS derived adipocytes were incubated with butyric acid, hexanoic acid or the combination thereof. […]
Experimental for IL-6: An experiment was carried out to ascertain the extent to which butyric acid and caproic acid effect the production of the proinflammatory cytokine IL-6 in an inflammatory condition.
Pooled human multipotent adipose tissue-derived stem cells (hMADS), were differentiated into the adipogenic lineage, creating a human white adipocyte model. hMADS cells were derived from male human donors with a large range in BMI (20-40 kg/m2) and glucometabolic status, and age between 35 and 70 years of age. Cells were seeded at a density of 2,000 cells/cm2 and kept in a proliferation medium containing Dulbecco's modified Eagle's medium (DMEM), Ham's F-12 Nutrient Mixture (Gibco, Bleiswijk, Netherlands), 10% fetal bovine serum (Bodinco BV, Alkmaar, NL, Netherlands), 50 U/ml penicillin (Gibco), and 50 μg/ml of streptomycin (Gibco)].
At 70-80% confluence, 250 μmol/L IBMX (Sigma, St. Louis, MI, USA) and 5 μmol/L rosiglitazone (Enzo Life Sciences, Raamsdonksveer, Netherlands) were added to induce adipogenic differentiation. Experiments were carried out between days 12 and 14 of the differentiation. […]
IL-6 cytokine levels in the culture supernatant were evaluated using a electrochemiluminescence (ECL) immunoassay (MSD; Rockville, Maryland) according to the manufacturers protocol. […]

Regarding `CCCC(=O)O` [butyric acid], the “concentration of IL-6” value in the experiment on IL-6 is “lower”. For the same compound, the “expression of IL-10 (mRNA)” value in the experiment on IL-10 was “small increase”.
For the compound `CCCCCC(=O)O` [hexanoic acid], in the experiment on IL-6, the “concentration of IL-6” value is given as “lower”. In addition, the “expression of IL-10 (mRNA)” value in the experiment with IL-10 is “small increase”.

The values are drawn from patent US20260124168A1, “OIL COMPOSITION COMPRISING CAPROIC ACID RESIDUES, UNSATURATED FATTY ACID RESIDUES AND SATURATED FATTY ACID RESIDUES” (AAK AB (PUBL), priority 2022, published 2026).
